Laboratory results: US20240117005A1, “NOVEL BICYCLIC PEPTIDES” (THE COUNCIL OF THE QUEENSLAND INSTITUTE OF MEDICAL RESEARCH, priority 2021, published 2024)
No end group written: not given here. *: point of attachment. Myristyl = CCCCCCCCCCCCCC*

Legend:
MDA-MB-231-Br cells = assay: WST-1 cell proliferation assay, MDA-MB-231-Br; format: cell-based, human
PDL2 = assay: Immunofluorescence microscopy of nuclear PDL2; format: cell-based, human; details: MDA-MB-231 breast cancer cell line
Method: The cells were fixed and immunofluorescence microscopy was performed. Digital images were analysed using ImageJ software (ImageJ, NIH, Bethesda, MD, USA) to determine the mean nuclear fluorescent intensity (TNFI) in cells measured using ImageJ to select the nucleus minus background (n=>500 cells/sample).

4T1 cells = assay: WST-1 cell proliferation assay, 4T1; format: cell-based; details: 4T1, WST-1, 72 hours
Method: (A) CT26, 4T1 or MDA-MB-231 Cells were treated with inhibitors for 72 hours. Following inhibition, media was removed and replaced with WST-1 cell proliferation reagent. Absorbance was recorded at 450 nm after 1 hour. Data represent a single independent experiment performed in triplicate. Results are graphed as mean +/− standard error (SE). B) MDA-MB-231 or CT26 cancer cells were treated with vehicle control, DL-2-Batch 1 (original stock), DL-2-Batch 2 (current stock), DL-2-TBAB or linear PDL1. Cells were permeabilised and were probed with the DUOLINK ligation assay. Cover slips were mounted on glass microscope slides with ProLong nucblue glass Antifade reagent (Life Technologies). PDL1Ac and IMPα1 DUOLINK Digital images were analysed using ImageJ software (ImageJ, NIH, Bethesda, MD, USA) and graphs represent the mean DOT Fluorescent Intensity in the nucleus or the cytoplasm compartments with significant differences calculated as per one-way ANOVA comparison. (C) MDA-MB-231 or CT26 cancer cells were treated with vehicle control, DL-2-Batch 1 (Original stock), DL-2-Batch 2 (current stock), DL-2-TBAB or linear PDL1. Cells were permeabilised and were probed with the DUOLINK ligation assay. Cover slips were mounted on glass microscope slides with ProLong nucblue glass Antifade reagent (Life Technologies). PDL1-unmodified and IMPα1 DUOLINK digital images were analysed using ImageJ software (ImageJ, NIH, Bethesda, MD, USA) and graphs represent the mean DOT fluorescent intensity in the nucleus or the cytoplasm compartments with significant differences calculated as per one-way ANOVA comparison.
4T1, CT26 or MDA-MB-231 cancer cell lines were treated with DL-2 or DL-2-D bicyclic inhibitors for 72 hours. Following inhibition, media was removed and replaced with WST-1 cell proliferation reagent. Absorbance was recorded at 450 nm after 1 hour. Data represent a single independent experiment performed in triplicate; results are graphed as mean +/− standard error (SE).

MCF-7 cells = assay: RNA-seq differential expression, DL-2 vs. Stimulated; format: cell-based, human; details: MCF-7, DL-2 vs. Stimulated (PMA)
Description: RNA-sequencing (RNA seq) data were obtained from human breast cancer cell line MCF-7 with and without DL-2 treatment. A total of 9 samples from […] experimental groups were collected, as follows: • Control (non-stimulated control, Ctrl) (n=3); • Stimulated (PMA stimulated control) (n=3); • DL-2 (treated with DL-2 and stimulated with PMA) (n=3); For the DL-2 treatment group, the MCF-7 cells were exposed to DL-2 first, then stimulated with PMA thereafter. RNA-seq data were generated, fastq data were downloaded to the QIMR Berghofer server, and then archived to the HSM by Scott Wood. Sequence reads were trimmed for adapter sequences using Cutadapt (version 1.9; Martin (2011)) and aligned using STAR (version 2.5.2a; Dobin et al. (2013)) to the GRCh37 assembly with the gene, transcript, and exon features of Ensembl (release 70) gene model. Quality control metrics were computed using RNA-SeQC (version 1.1.8; DeLuca et al. (2012)) and expression was estimated using RSEM (version 1.2.30; Li and Dewey (2011)). In our analysis, we corrected for library size by dividing each sample's gene count by million reads mapped. This procedure is a common approach known as counts per million (CPM). We further corrected for differences in RNA composition using a method proposed by Robinson and Oshlack (2010a) called trimmed mean of M values (TMM). We used the function calcNormFactors( ) from the edgeR package (Robinson, McCarthy, and Smyth (2010b)) to obtain TMM factors and used these to correct for differences in RNA composition. Differential expression (DE) analysis was performed using the R package edgeR (Robinson, McCarthy, and Smyth (2010b)). Note that the inputs for DE analysis are the filtered but not normalised read counts, since edgeR performs normalisation (library size and RNA composition) internally. The […]( ) function was used to fit a quasi-likelihood negative binomial generalised log-linear model to the read counts for each gene. Using the […]( ) function, we conducted gene-wise empirical Bayes quasi-likelihood F-tests for a given contrast. As per the edgeR user's guide, “the quasi-likelihood method is highly recommended for differential expression analyses of bulk RNA-seq data [versus the likelihood ratio test] as it gives stricter error rate control by accounting for the uncertainty in dispersion estimation”.

CSC = CSC inhibition (Table 10 summary); format: cell-based; details: linear peptide derivatives; change stated relative to prototype PDL1-L1

## CCCCCCCCCCCCCC(=O)NC(C)C(=O)NC1CSCc2cc3cc(c2)CSC[C@H](NC(=O)[C@H](Cc2ccccc2)NC(=O)[C@H](C(C)CC)NC(=O)[C@H](Cc2ccccc2)NC(=O)[C@H]([C@@H](C)O)NC(=O)C(CC(C)C)NC1=O)C(=O)N[C@@H](CCCNC(C)=N)C(=O)N[C@@H](CC(C)C)C(=O)N[C@@H](CCCNC(=N)N)C(=O)N[C@@H](CCCCN)C(=O)NCC(=O)N[C@@H](CCCNC(=N)N)C(=O)NC(C(=O)N[C@@H](CCSC)C(=O)NC(CCSC)C(=O)N[C@@H](CC(=O)O)C(=O)NC(C(=O)N[C@@H](CCCCN)C(=O)NC(CCCCN)C(=O)O)C(C)C)CSC3 (mixture of isomers) [DL-2]
MDA-MB-231-Br cells; WST-1
  inhibition of proliferation: able to inhibit proliferation
MDA-MB-231-Br cells; higher potency than DL-1
  potency of proliferation inhibition relative to DL-1: 2-3 fold
PDL2
  nuclear expression of PDL2: no effect at all
4T1 cells
  inhibition of proliferation: significantly inhibit the proliferation
4T1 cells; listed as DL-2-TBMB
  inhibition of proliferation: able to effectively inhibit the proliferation
MCF-7 cells
  logFC A2M: 1.461
  logFC AKR1C1: −1.324
  logFC ALDH1A3: −0.9248
  logFC ATP6V0B: 0.647
  logFC B3GAT3: 0.8186
  logFC BSCL2: 0.9849
  logFC C19orf10: 0.7917
  logFC CAMSAP2: −0.7468
  logFC CD99: 0.6829
  logFC CDKN2B: −0.5982
  logFC CHPF: 0.6073
  logFC CTNNAL1: −0.5943
  logFC CTSD: 1.079
  logFC CXCL12: 1.155
  logFC ELF1: −0.7207
  logFC ENTPD1: 0.8956
  logFC ETV3: −0.6424
  logFC FILIP1L: −0.7563
  logFC FOXN3: −0.75
  logFC IFIT2: −1.213
  logFC IGFBP2: 0.7385
  logFC IGFBP4: 0.6164
  logFC INPP4B: −0.6381
  logFC KIAA1324: 0.6324
  logFC KLHL5: −1.028
  logFC MANF: 0.8172
  logFC MMP9: −1.43
  logFC MOB1A: −0.6723
  logFC MUC1: 0.9921
  logFC NEDD9: −0.7516
  logFC NEU1: 0.6165
  logFC PPIB: 0.8358
  logFC PRDX4: 0.6511
  logFC QKI: −0.8595
  logFC RAI14: −0.8091
  logFC SERPINA3: 1.008
  logFC SGCG: 1.126
  logFC SIRT1: −0.7444
  logFC SLC7A11: −0.8545
  logFC STC1: 0.7265
  logFC TACC1: −0.6077
  logFC TAPBP: 0.5968
  logFC TBC1D5: −0.897
  logFC TCN1: 2.029
  logFC TFF1: 1.253
  logFC TMED3: 0.6673
  logFC TXNRD1: −0.7667
  logFC ZMYND11: −2.883
  logFC ZNF267: −0.6577

## LTFIFRLRKGRMMDVKK (Myristyl-LTFIFRLRKGRMMDVKK) [PDL1-L1, Myristyl- linear peptide, prototype]
CSC
  Potency (CSC inhibition): Weak
